Data taken from patent US10780090B2, “Heteroaryl compounds useful as inhibitors of SUMO activating enzyme” (Millennium Pharmaceuticals, Inc., priority 2014, dated 2020).

Molecular target: recombinant human SAE enzyme (Homo sapiens (Human), UniProt Q9UBT2)
Assay: SAE HTRF enzyme assay
Format: biochemical
Conditions: for inhibition at 0.111 µM: read-out: Percent Inhibition
Experimental: Example 215: SAE HTRF enzyme assay
The SAE enzymatic reaction totals 50 μl and contains 50 mM HEPES Hemisodium (pH 7.5), 0.05% BSA, 5 mM MgCl2, 0.5 μM ATP, 250 μM GSH, 0.01 μM Ubc9-GST, 0.125 μM Sumo-Flag and 0.11 nM recombinant human SAE enzyme. The enzymatic reaction mixture, with and without inhibitor, Is incubated at 24° C. for 105 min in a 384-well plate before termination with […] of Stop/Detection buffer (0.1M HEPES Hemisodium pH 7.5, 0.05% Tween20, 20 mM EDTA, 410 mM KF, 0.53 nM Europium-Cryptate labeled monoclonal anti-Flag M2 Antibody (CisBio International) and 8.125 μg/ml PHYCOLINK goat anti-GST allophycocyanin (XL-APC) antibody (Prozyme)). After incubation for 2 hours at 24° C., quantification of FRET is performed on the Pherostar™ (BMG Labtech). Percentage inhibition values at a single concentration or enzyme inhibition (IC50) values are determined from those curves. One skilled in the art will appreciate that the values generated either as percentage inhibition at a single concentration or IC50 values are subject to experimental variation.

[1] = SAE inhibition at compound concentration 0.111 μM
[2] = SAE inhibition, class symbols, legend in nM

Sequence of recombinant human SAE enzyme (Q9UBT2 whole entry): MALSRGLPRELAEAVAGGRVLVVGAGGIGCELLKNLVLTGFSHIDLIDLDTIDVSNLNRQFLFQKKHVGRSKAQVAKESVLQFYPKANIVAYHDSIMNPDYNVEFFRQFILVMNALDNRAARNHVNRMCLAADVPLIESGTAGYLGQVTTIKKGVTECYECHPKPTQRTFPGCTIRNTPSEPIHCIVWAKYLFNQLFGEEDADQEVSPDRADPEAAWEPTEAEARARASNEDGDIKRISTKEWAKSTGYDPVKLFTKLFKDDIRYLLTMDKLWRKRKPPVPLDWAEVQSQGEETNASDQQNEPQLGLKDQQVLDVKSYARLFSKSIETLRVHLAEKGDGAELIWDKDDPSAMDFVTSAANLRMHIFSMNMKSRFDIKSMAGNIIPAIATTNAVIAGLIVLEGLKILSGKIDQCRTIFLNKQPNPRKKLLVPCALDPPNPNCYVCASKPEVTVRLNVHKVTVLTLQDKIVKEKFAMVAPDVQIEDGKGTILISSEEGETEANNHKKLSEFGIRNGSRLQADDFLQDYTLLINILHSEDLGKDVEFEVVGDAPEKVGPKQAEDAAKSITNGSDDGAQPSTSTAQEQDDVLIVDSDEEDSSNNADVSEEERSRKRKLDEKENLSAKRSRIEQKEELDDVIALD
Sequence of recombinant human SAE enzyme (Q9UBE0 whole entry partner): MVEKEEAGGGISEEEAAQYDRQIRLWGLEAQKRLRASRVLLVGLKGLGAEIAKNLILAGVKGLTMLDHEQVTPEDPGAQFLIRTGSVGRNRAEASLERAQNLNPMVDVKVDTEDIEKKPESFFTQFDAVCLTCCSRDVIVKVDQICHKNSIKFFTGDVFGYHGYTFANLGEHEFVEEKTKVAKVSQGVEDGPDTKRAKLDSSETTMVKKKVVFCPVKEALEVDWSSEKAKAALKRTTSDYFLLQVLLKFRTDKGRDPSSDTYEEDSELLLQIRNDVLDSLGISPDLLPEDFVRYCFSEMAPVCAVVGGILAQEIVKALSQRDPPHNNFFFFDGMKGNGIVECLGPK

In the case of `CN1CCc2ccc(Cl)cc2[C@@H]1c1csc(C(=O)c2cncnc2N[C@@H]2C[C@H](COS(N)(=O)=O)[C@@H](O)C2)c1` (single isomer, unassigned) [I-307b, [(1R,2S,4R)-4-{[5-({4-[(1R)-7-chloro-2-methyl-1,2,3,4-tetrahydroisoquinolin-1-yl]-2-thienyl}carbonyl)pyrimidin-4-yl]amino}-2-hydroxycyclopentyl]methyl sulfamate or [(1R,2S,4R)-4-{[5-({4-[(1S)-7-chloro-2-methyl-1,2,3,4-tetrahydroisoquinolin-1-yl]-2-thienyl}carbonyl)pyrimidin-4-yl]amino}-2-hydroxycyclopentyl]methyl sulfamate], the “Percent Inhibition” value [1] is reported as 97% and the IC50 [2] is reported as under 10 nM.

In the case of `Cc1sc(C(=O)c2cncnc2N[C@@H]2C[C@H](COS(N)(=O)=O)[C@@H](O)C2)cc1[C@@H]1OCC(F)(F)c2ccc(Cl)cc21.Cc1sc(C(=O)c2cncnc2N[C@@H]2C[C@H](COS(N)(=O)=O)[C@@H](O)C2)cc1[C@H]1OCC(F)(F)c2ccc(Cl)cc21` (mixture of isomers) [I-288, [(1R,2S,4R)-4-{[5-({4-[(1R)-7-chloro-4,4-difluoro-3,4-dihydro-1H-isochromen-1-yl]-5-methyl-2-thienyl}carbonyl)pyrimidin-4-yl]amino}-2-hydroxycyclopentyl]methyl sulfamate and [(1R,2S,4R)-4-{[5-({4-[(1S)-7-chloro-4,4-difluoro-3,4-dihydro-1H-isochromen-1-yl]-5-methyl-2-thienyl}carbonyl)pyrimidin-4-yl]amino}-2-hydroxycyclopentyl]methyl sulfamate], the “Percent Inhibition” value [1] is reported as 99% and the IC50 [2] is reported as under 10 nM.

For `Cc1sc(C(=O)c2cncnc2NC2CC(O)C(COS(N)(=O)=O)C2)cc1[S+]([O-])c1ccccc1` (mixture of isomers) [I-68, [(1R,2S,4R)-2-hydroxy-4-{[5-({5-methyl-4-[(R)-phenylsulfinyl]-2-thienyl}carbonyl)pyrimidin-4-yl]amino}cyclopentyl]methyl sulfamate and [(1R,2S,4R)-2-hydroxy-4-{[5-({5-methyl-4-[(S)-phenylsulfinyl]-2-thienyl}carbonyl)pyrimidin-4-yl]amino}cyclopentyl]methyl sulfamate], the “Percent Inhibition” value (Concentration 0.111 μM) was 98 and the IC50 (class symbols A/B/C) was under 10 nM.

`Cc1sc(C(=O)c2cncnc2N[C@@H]2C[C@H](COS(N)(=O)=O)[C@@H](O)C2)cc1[C@@H]1OCOc2ccccc21` (single isomer, unassigned) [I-280b, [(1R,2S,4R)-4-{[5-({4-[(4R)-4H-1,3-benzodioxin-4-yl]-5-methyl-2-thienyl}carbonyl)pyrimidin-4-yl]amino}-2-hydroxycyclopentyl]methyl sulfamate or [(1R,2S,4R)-4-{[5-({4-[(4S)-4H-1,3-benzodioxin-4-yl]-5-methyl-2-thienyl}carbonyl)pyrimidin-4-yl]amino}-2-hydroxycyclopentyl]methyl sulfamate] was tested, and the “Percent Inhibition” value [1] was 100% and the IC50 [2] was under 10 nM.

In the case of `NS(=O)(=O)OC[C@H]1C[C@@H](Nc2ncncc2C(=O)c2cc(CC3=CCOC3)cs2)C[C@@H]1O` [I-193, {(1R,2S,4R)-4-[(5-{[4-(2,5-dihydrofuran-3-ylmethyl)-2-thienyl]carbonyl}pyrimidin-4-yl)amino]-2-hydroxycyclopentyl}methyl sulfamate], the inhibition at 0.111 µM (Concentration 0.111 μM) is reported as 72% and the IC50 (class symbols A/B/C) is reported as 10 to 100 nM.

`NS(=O)(=O)OC[C@H]1C[C@@H](Nc2ncncc2C(=O)c2cc(Cc3cccc(Cl)c3)cs2)C[C@@H]1O` [I-43, {(1R,2S,4R)-4-[(5-{[4-(3-chlorobenzyl)-2-thienyl]carbonyl}pyrimidin-4-yl)amino]-2-hydroxycyclopentyl}methyl sulfamate] was tested, and the inhibition at 0.111 µM (Concentration 0.111 μM) was 99%.

`Cc1oc(C(=O)c2cncnc2N[C@@H]2C[C@H](COS(N)(=O)=O)[C@@H](O)C2)cc1[C@@H]1OCCc2ccc(Cl)cc21` (single isomer, unassigned) [I-270b, {(1R,2S,4R)-4-[(5-{4-[(1R)-7-chloro-3,4-dihydro-1H-isochromen-1-yl]-5-methyl-2-furoyl}pyrimidin-4-yl)amino]-2-hydroxycyclopentyl}methyl sulfamate or {(1R,2S,4R)-4-[(5-{4-[(1S)-7-chloro-3,4-dihydro-1H-isochromen-1-yl]-5-methyl-2-furoyl}pyrimidin-4-yl)amino]-2-hydroxycyclopentyl}methyl sulfamate] was tested, and the “Percent Inhibition” value (Concentration 0.111 μM) was 99 and the IC50 (class symbols A/B/C) was under 10 nM.

`COc1ccc2c(c1)[C@H](c1cc(C(=O)c3cncnc3N[C@@H]3C[C@H](COS(N)(=O)=O)[C@@H](O)C3)sc1C)OCC2` (mixture of isomers) [I-341, [(1R,2S,4R)-2-hydroxy-4-{[5-({4-[(1R)-7-methoxy-3,4-dihydro-1H-isochromen-1-yl]-5-methyl-2-thienyl}carbonyl)pyrimidin-4-yl]amino}cyclopentyl]methyl sulfamate and [(1R,2S,4R)-2-hydroxy-4-{[5-({4-[(1S)-7-methoxy-3,4-dihydro-1H-isochromen-1-yl]-5-methyl-2-thienyl}carbonyl)pyrimidin-4-yl]amino}cyclopentyl]methyl sulfamate] was tested, and the “Percent Inhibition” value [1] was 10% and the IC50 [2] was 100 to 1000 nM.

With `NS(=O)(=O)OC[C@H]1C[C@@H](Nc2ncncc2C(=O)c2cc([C@]3(c4cccc(Cl)c4)CCO3)c(Cl)s2)C[C@@H]1O` (mixture of isomers) [I-67, [(1R,2S,4R)-4-{[5-({5-chloro-4-[(2R)-2-(3-chlorophenyl)oxetan-2-yl]-2-thienyl}carbonyl)pyrimidin-4-yl]amino}-2-hydroxycyclopentyl]methyl sulfamate and [(1R,2S,4R)-4-{[5-({5-chloro-4-[(2S)-2-(3-chlorophenyl)oxetan-2-yl]-2-thienyl}carbonyl)pyrimidin-4-yl]amino}-2-hydroxycyclopentyl]methyl sulfamate] the “Percent Inhibition” value (Concentration 0.111 μM) was 99 and the IC50 (class symbols A/B/C) was under 10 nM.

`NS(=O)(=O)OC[C@H]1C[C@@H](Nc2ncncc2C(=O)c2cc([C@H](O)c3cccc(Cl)c3)cs2)C[C@@H]1O` (mixture of isomers) [I-4, [(1R,2S,4R)-4-{[5-({4-[(R)-(3-chlorophenyl)(hydroxy)methyl]-2-thienyl}carbonyl)pyrimidin-4-yl]amino}-2-hydroxycyclopentyl]methyl sulfamate and [(1R,2S,4R)-4-{[5-({4-[(S)-(3-chlorophenyl)(hydroxy)methyl]-2-thienyl}carbonyl)pyrimidin-4-yl]amino}-2-hydroxycyclopentyl]methyl sulfamate] was tested, and the “Percent Inhibition” value (Concentration 0.111 μM) was 99 and the IC50 (class symbols A/B/C) was under 10 nM.

In the case of `NS(=O)(=O)OC[C@H]1C[C@@H](Nc2ncncc2C(=O)c2cc(C3(c4cccc(Cl)c4)CCCO3)cs2)C[C@@H]1O` (single isomer, unassigned) [I-20a, [(1R,2S,4R)-4-{[5-({4-[(2S)-2-(3-chlorophenyl)tetrahydrofuran-2-yl]-2-thienyl}carbonyl)pyrimidin-4-yl]amino}-2-hydroxycyclopentyl]methyl sulfamate or [(1R,2S,4R)-4-{[5-({4-[(2R)-2-(3-chlorophenyl)tetrahydrofuran-2-yl]-2-thienyl}carbonyl)pyrimidin-4-yl]amino}-2-hydroxycyclopentyl]methyl sulfamate], the “Percent Inhibition” value (Concentration 0.111 μM) is reported as 81 and the IC50 (class symbols A/B/C) is reported as 10 to 100 nM.

`NS(=O)(=O)OC[C@H]1C[C@@H](Nc2ncncc2C(=O)c2cc(CO)cs2)C[C@@H]1O` [I-230, {(1R,2S,4R)-2-hydroxy-4-[(5-{[4-(hydroxymethyl)-2-thienyl]carbonyl}pyrimidin-4-yl)amino]cyclopentyl}methyl sulfamate] gave an inhibition at 0.111 µM (Concentration 0.111 μM) of 26% and an IC50 (class symbols A/B/C) of 100 to 1000 nM.

`NS(=O)(=O)OC[C@H]1C[C@@H](Nc2ncncc2C(=O)c2cc([C@@H]3OCCc4c(Cl)cccc43)cs2)C[C@@H]1O` (single isomer, unassigned) [I-301b, [(1R,2S,4R)-4-{[5-({4-[(1R)-5-chloro-3,4-dihydro-1H-isochromen-1-yl]-2-thienyl}carbonyl)pyrimidin-4-yl]amino}-2-hydroxycyclopentyl]methyl sulfamate or [(1R,2S,4R)-4-{[5-({4-[(1S)-5-chloro-3,4-dihydro-1H-isochromen-1-yl]-2-thienyl}carbonyl)pyrimidin-4-yl]amino}-2-hydroxycyclopentyl]methyl sulfamate] was tested, and the “Percent Inhibition” value [1] was 100% and the IC50 [2] was under 10 nM.

With `C=C(c1cccc(Br)c1)c1csc(C(=O)c2cncnc2N[C@@H]2C[C@H](COS(N)(=O)=O)[C@@H](O)C2)c1` [I-164, [(1R,2S,4R)-4-{[5-({4-[1-(3-Bromophenyl)vinyl]-2-thienyl}carbonyl)pyrimidin-4-yl]amino)-2-hydroxycyclopentyl]methyl sulfamate] the inhibition at 0.111 µM (Concentration 0.111 μM) was 92% and the IC50 (class symbols A/B/C) was 10 to 100 nM.

With `CN1Cc2ccc(Cl)cc2[C@@H]1c1csc(C(=O)c2cncnc2N[C@@H]2C[C@H](COS(N)(=O)=O)[C@@H](O)C2)c1` (mixture of isomers) [I-265, [(1R,2S,4R)-4-{[5-({4-[(1R)-6-chloro-2-methyl-2,3-dihydro-1H-isoindol-1-yl]-2-thienyl}carbonyl)pyrimidin-4-yl]amino}-2-hydroxycyclopentyl]methyl sulfamate and [(1R,2S,4R)-4-{[5-({4-[(1S)-6-chloro-2-methyl-2,3-dihydro-1H-isoindol-1-yl]-2-thienyl}carbonyl)pyrimidin-4-yl]amino}-2-hydroxycyclopentyl]methyl sulfamate] the “Percent Inhibition” value (Concentration 0.111 μM) was 97 and the IC50 (class symbols A/B/C) was under 10 nM.
